The values that follow come from ChEMBL document CHEMBL1687859, “Therapeutic efficacy of halocidin-derived peptide HG1 in a mouse model of surgical wound infection with methicillin-resistant Staphylococcus aureus” (Antimicrob Agents Chemother, 2011).

Data set [1] concerns Zone of skin. Nature of the data set: Drug penetration in ethidium bromide-labeled methicillin-resistant Staphylococcus aureus infected ICR mouse skin administered topically after 4 hrs by confocal microscopic analysis. The format is ADME, tissue-based. The conditions noted are these: in vivo, topical_or_ocular.
Data set [2] concerns Staphylococcus aureus. Nature of the data set: Antibacterial activity against ethidium bromide-labeled methicillin-resistant Staphylococcus aureus infected in ICR mouse skin administered topically after 4 hrs by confocal microscopic analysis. The format is functional, organism-based.
The test system of data set [3] is Zone of skin. Nature of the data set: Drug penetration in ICR mouse skin administered topically using plastic cylinder by HPLC analysis. It counts as ADME, tissue-based. Particulars: in vivo, topical_or_ocular.
The test system of data set [4] is Staphylococcus aureus. Nature of the data set: Antibacterial activity against methicillin-resistant Staphylococcus aureus. The format is functional.
The subject of data set [5] is Zone of skin. Put plainly: Drug penetration in ICR mouse skin administered topically using plastic cylinder by immunoblotting. The conditions noted are these: in vivo, topical_or_ocular. It counts as ADME, tissue-based. (In general: A western blot detects proteins with antibodies after separation by electrophoresis.)
Data set [6] has as its system Staphylococcus aureus. Nature of the data set: Drug binding to ethidium bromide-labeled methicillin-resistant Staphylococcus aureus infected in ICR mouse skin administered topically after 4 hrs by confocal microscopic analysis. The format is ADME, organism-based. The conditions noted are these: in vivo, topical_or_ocular.
Data set [7] deals with Staphylococcus aureus. Put plainly: Antibacterial activity against methicillin-resistant Staphylococcus aureus infected in ICR mouse surgical wound model assessed as reduction of CFU administered topically every 12 hrs for 5 days. It counts as functional.
For data set [8], the system named is Zone of skin. Nature of the data set: Drug penetration in ICR mouse skin administered topically using plastic cylinder by fluorescence microscopy. The format is ADME, tissue-based. Particulars: in vivo, topical_or_ocular.

Values after ≈ are worked out from the molar mass of the structure shown. Active and inactive are the calls of the source. The calls are words filed in the database; no cut-off is given here. Bridge positions count the residues as written; N and C are the ends. Peptide text beside a SMILES is read from it. I, II: the chains in the order shown.

As a reminder, the MIC is the lowest concentration that inhibits growth of the organism. Higher therefore signals a need for much substance.

For the compound `CC(C)C[C@H](NC(=O)CNC(=O)[C@H](Cc1cnc[nH]1)NC(=O)[C@H](Cc1cnc[nH]1)NC(=O)[C@H](CC(C)C)NC(=O)[C@H](CC(C)C)NC(=O)[C@H](C)NC(=O)[C@H](CC(N)=O)NC(=O)[C@H](CC(C)C)NC(=O)[C@H](Cc1c[nH]c2ccccc12)NC(=O)[C@@H](N)CCCCN)C(=O)N[C@@H](CC(N)=O)C(=O)N[C@@H](CSSC[C@H](NC(=O)[C@H](CC(N)=O)NC(=O)[C@H](CC(C)C)NC(=O)CNC(=O)[C@H](Cc1cnc[nH]1)NC(=O)[C@H](Cc1cnc[nH]1)NC(=O)[C@H](CC(C)C)NC(=O)[C@H](CC(C)C)NC(=O)[C@H](C)NC(=O)[C@H](CC(N)=O)NC(=O)[C@H](CC(C)C)NC(=O)[C@H](Cc1c[nH]c2ccccc12)NC(=O)[C@@H](N)CCCCN)C(=O)N[C@@H](C)C(=O)N[C@@H](CCCCN)C(=O)NCC(=O)N[C@H](C(=O)N[C@@H](CC(C)C)C(=O)N[C@@H](C)C(N)=O)C(C)C)C(=O)N[C@@H](C)C(=O)N[C@@H](CCCCN)C(=O)NCC(=O)N[C@H](C(=O)N[C@@H](CC(C)C)C(=O)N[C@@H](C)C(N)=O)C(C)C` (I: H-KWLNALLHHGLNCAKGVLA-NH2 / II: H-KWLNALLHHGLNCAKGVLA-NH2; disulfide I:13-II:13), the Drug uptake result in data set [1], in data set [3], in data set [5] and in data set [8] was “Active” throughout. Besides, the result in data set [2] was Active. In data set [4], this compound came in with an MIC of 4 µg/mL (≈ 0.973 µM). For the same compound, in data set [6], the outcome was Active. Besides, in data set [7], the CFU is on record as 3.
